Measurements reported in publication PMC7913925, “Design and Evaluation of a Polypeptide That Mimics the Integrin Binding Site for EDA Fibronectin to Block Profibrotic Cell Activity” (International Journal of Molecular Sciences, 2021).
Bridges are numbered along the chain shown (N, C = ends). Where no end group is shown, it is not given here.

Legend:
[1] = tested on: mouse NIH/3T3 dermal fibroblast cells; experiment: Cytotoxicity/proliferation assay (CCK-8) NIH/3T3; format: cell-based; settings: TGF-β1 stimulated NIH/3T3, over 72 h
Description: HFL1 cells were cultured in Kaighn’s modified Ham’s F-12 (F-12K) medium (Sigma-Aldrich) containing NaHCO3 and HEPES buffered to pH 7. Cells were grown to confluence in T75 culture flasks in the presence of 10% fetal bovine serum (FBS; Gibco, Thermo Fisher Scientific, Waltham, MA, USA). HFL1 cells were subcultured using 0.05% trypsin at a ratio of 1:3. NIH/3T3 cells were cultured in Dulbecco’s Modified Eagle Medium (DMEM; HyClone, Thermo Fisher Scientific) containing 100 U/mL penicillin and 100 μg/mL streptomycin. Cells were grown to confluence in T75 culture flasks in the presence of 10% FBS. NIH/3T3 cells were subcultured using 0.05% trypsin/EDTA at a ratio of 1:3. All cells were maintained at 37 °C and 5% CO2, and growth medium was replenished every 3 days until experimentation. Cells were growth-arrested in serum-free medium for 48 h before experiments, and all experiments were performed under serum-free conditions using cells between passages 3 and 8.
Cells were seeded into 12-well culture plates at a density of 2.5 × 10^4 and when cultures reached 50% confluence, the culture medium was replaced with fresh serum-free F12K or serum-free DMEM/F12 for 48 h (growth arrest). […] Absorbance was measured at 450 nm wavelength using a Bio-Rad optical plate reader.

[2] = tested on: Ltbp1 mRNA in NIH/3T3 fibroblasts; experiment: qRT-PCR Ltbp1 mRNA; format: cell-based, mouse; settings: 48 h, TGF-β1 10 ng/mL
Description: Reverse transcription (RT) and real-time quantitative PCR (qRT-PCR) were used to assess ACTA2/Acta2, Col1a1, Col3a1, Fn1, Eda-Fn1, Mmp9, Tgfb1, Ltbp1, Hic5, and Mrtfa mRNA expressions. Custom PCR primers were designed in-house (Table 2) and then synthesized by BGI (Beijing, China). Cells were grown in 6-well culture plates and washed with phosphate buffered saline (PBS) before lysis with TRIzon Reagent (CWBio, Beijing, China) and total RNA purification according to the manufacturer’s protocol. Reverse transcription was carried using the TransScript First-Strand cDNA Synthesis SuperMix kit according to the manufacturer’s protocol (TransGen, Beijing, China), using the random primer method for the initiation of cDNA synthesis. Nuclease-free H2O replaced the RNA sample to serve as a negative control for the reverse transcription reaction. For qRT-PCR, 10 µL 2× TransStart Top Green qPCR SuperMix was added to each well of a 96-well PCR plate containing 0.4 µL forward primer, 0.4 µL reverse primer, […], and nuclease-free water to a total volume of 20 µL. The qRT-PCR reaction was completed using a CFX96 Real-Time PCR Detection System (Bio-Rad Laboratories, Hercules, CA, USA). Amplification used the following parameters: 94 °C for 30 s, followed by 40 cycles of 94 °C for 5 s, 55 °C for 15 s, 72 °C for 10 s, and then a dissociation stage (melt-curve). […]

[3] = tested on: integrin α4 protein (ITGA4); experiment: Western blot total protein ITGA4; format: cell-based; settings: 48 h TGF-β1, AF38Pep or TGF-β1+AF38Pep
OPN–ITGA4 interaction = experiment: Co-IP of OPN with ITGA4; format: cell-based; settings: 48 h, Co-IP with anti-ITGA4
Description: (§1) Total protein was extracted from cells in RIPA lysis buffer containing 1% protease inhibitor cocktail, 1% phenylmethylsulfonyl fluoride, and 1% sodium orthovanadate (Santa Cruz Biotechnology, Santa Cruz, CA, USA). Protein was quantified by Micro BCA Protein Assay Kit (Thermo Fisher Scientific) before 7.5% SDS-PAGE and transfer to nitrocellulose. Membranes were blocked with 5% bovine serum albumin (BSA; Sigma-Aldrich)/0.5% Tween-20 (Sigma-Aldrich)/PBS for 1 h, RT, followed by incubation with primary antibodies diluted in 1% BSA/0.1% Tween-20/PBS, overnight at 4 °C. Primary antibodies were: anti-phosphoY204/Y187 ERK1/2 (1:1000); anti-ERK1/2 (1:1000); anti-phosphoY861 FAK (1:1000); anti-FAK (1:2000). Immunoblotting for anti-GAPDH (1:2500) was used as a protein loading control. Following wash steps, membranes were incubated in goat anti-rabbit IgG H&L secondary antibody (horseradish peroxidase, HRP conjugate, […]) (Abcam; 1:5000 dilution, 1% BSA/0.1% Tween-20/PBS). Detection was performed using Immobilon reagent (Merck Millipore, Burlington, MA, USA) and imaged using a Tanon 5500 Chemiluminescent Imaging System (Tanon, Shanghai, China).
(§2) A volume of 25 µg total protein from cell lysate in nondenaturing lysis buffer containing protease inhibitors was immunoprecipitated (IP) using anti-ITGA4 antibodies linked to protein A/G sepharose beads (Abcam). […]

VCAM1–ITGA4 interaction = experiment: Co-IP of VCAM1 with ITGA4; format: cell-based; settings: 48 h, Co-IP with anti-ITGA4
Description: as §1, §2

## VMPYISTTPAKPCTSENCGNSWYGGFKSKNENKIYFIN (disulfide 13-18 (inferred)) [AF38Pep]
[1]
  cytotoxicity/proliferation: did not interfere with cell proliferation nor incur cell death
[2]
  LTBP1 mRNA expression: attenuated
[3]
  ITGA4 total protein: remained unaffected
OPN–ITGA4 interaction
  OPN–ITGA4 binding: did not influence OPN–ITGA4 binding
VCAM1–ITGA4 interaction
  VCAM1–ITGA4 binding: unaffected by cell treatments and remained at basal levels
